Test results from ChEMBL document CHEMBL3991601, “The target landscape of clinical kinase drugs” (Science, 2017).
Calls of active or inactive are those of the source. Cut-off read from the data, not from the text of the source, for most assays here: actives have a measured Kd and inactives only a lower limit.

Legend:
[1] = molecular target: Cyclin-dependent kinase 7 (Homo sapiens, UniProt P50613)
[2] = molecular target: Serine/threonine-protein kinase/endoribonuclease IRE1 (Homo sapiens, UniProt O75460)
[3] = molecular target: Serine/threonine-protein kinase/endoribonuclease IRE2 (Homo sapiens, UniProt Q76MJ5)
[4] = molecular target: T1, Membrane-associated tyrosine- and threonine-specific cdc2-inhibitory kinase (Homo sapiens, UniProt Q99640)
T1 sequence (Q99640 whole entry): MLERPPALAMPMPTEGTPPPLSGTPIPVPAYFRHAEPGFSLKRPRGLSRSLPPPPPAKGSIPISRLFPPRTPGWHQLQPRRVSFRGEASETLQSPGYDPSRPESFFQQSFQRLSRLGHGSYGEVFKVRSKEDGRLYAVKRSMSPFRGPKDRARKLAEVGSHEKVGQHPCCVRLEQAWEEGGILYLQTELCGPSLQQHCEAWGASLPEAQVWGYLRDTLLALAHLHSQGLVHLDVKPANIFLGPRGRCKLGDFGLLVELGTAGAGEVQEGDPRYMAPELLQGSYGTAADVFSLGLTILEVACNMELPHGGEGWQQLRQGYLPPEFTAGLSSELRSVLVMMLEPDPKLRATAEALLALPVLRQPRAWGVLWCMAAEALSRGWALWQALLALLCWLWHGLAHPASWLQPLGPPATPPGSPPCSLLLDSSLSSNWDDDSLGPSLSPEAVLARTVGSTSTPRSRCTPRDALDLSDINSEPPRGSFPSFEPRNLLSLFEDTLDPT

[5] = molecular target: T2, General transcription and DNA repair factor IIH helicase subunit XPD (Homo sapiens, UniProt P18074); conditions: read-out: Kd apparent; k-562, colo 205, sk-n-be(2) and mv-4-11
T2 sequence (P18074 whole entry): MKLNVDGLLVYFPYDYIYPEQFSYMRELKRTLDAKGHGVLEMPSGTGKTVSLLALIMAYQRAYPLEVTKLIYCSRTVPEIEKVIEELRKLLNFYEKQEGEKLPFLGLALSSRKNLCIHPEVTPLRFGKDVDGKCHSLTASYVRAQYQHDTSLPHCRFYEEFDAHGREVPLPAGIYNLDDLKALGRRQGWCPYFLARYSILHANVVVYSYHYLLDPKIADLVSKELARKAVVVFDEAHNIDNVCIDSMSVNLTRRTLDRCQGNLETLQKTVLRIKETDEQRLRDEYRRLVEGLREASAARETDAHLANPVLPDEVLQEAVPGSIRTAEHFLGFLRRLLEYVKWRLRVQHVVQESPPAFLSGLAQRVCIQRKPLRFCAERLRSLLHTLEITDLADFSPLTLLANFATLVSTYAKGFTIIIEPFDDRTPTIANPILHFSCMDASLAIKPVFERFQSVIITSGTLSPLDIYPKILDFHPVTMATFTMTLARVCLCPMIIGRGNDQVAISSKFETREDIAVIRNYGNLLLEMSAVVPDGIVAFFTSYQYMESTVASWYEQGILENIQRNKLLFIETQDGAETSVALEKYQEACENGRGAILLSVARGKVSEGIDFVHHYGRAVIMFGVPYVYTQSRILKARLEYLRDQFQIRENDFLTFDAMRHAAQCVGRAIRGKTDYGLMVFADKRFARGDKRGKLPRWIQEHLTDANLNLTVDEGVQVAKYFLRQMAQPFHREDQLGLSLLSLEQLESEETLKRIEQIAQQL

Aurora kinase A = molecular target: T3, Aurora kinase A (Homo sapiens, UniProt O14965)
T3 sequence (O14965 whole entry): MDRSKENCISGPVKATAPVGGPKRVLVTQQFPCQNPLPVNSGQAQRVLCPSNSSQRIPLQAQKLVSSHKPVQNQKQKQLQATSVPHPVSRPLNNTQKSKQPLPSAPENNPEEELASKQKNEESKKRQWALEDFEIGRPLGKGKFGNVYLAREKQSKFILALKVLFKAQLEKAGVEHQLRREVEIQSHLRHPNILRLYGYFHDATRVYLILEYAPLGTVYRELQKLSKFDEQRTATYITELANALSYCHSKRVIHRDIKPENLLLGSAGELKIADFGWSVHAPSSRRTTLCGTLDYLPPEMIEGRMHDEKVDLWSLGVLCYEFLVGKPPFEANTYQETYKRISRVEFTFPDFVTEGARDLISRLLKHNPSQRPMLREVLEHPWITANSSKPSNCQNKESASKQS

[6] = molecular target: T4, Serine/threonine-protein kinase TAO1 (Homo sapiens, UniProt Q7L7X3)
T4 sequence (Q7L7X3 whole entry): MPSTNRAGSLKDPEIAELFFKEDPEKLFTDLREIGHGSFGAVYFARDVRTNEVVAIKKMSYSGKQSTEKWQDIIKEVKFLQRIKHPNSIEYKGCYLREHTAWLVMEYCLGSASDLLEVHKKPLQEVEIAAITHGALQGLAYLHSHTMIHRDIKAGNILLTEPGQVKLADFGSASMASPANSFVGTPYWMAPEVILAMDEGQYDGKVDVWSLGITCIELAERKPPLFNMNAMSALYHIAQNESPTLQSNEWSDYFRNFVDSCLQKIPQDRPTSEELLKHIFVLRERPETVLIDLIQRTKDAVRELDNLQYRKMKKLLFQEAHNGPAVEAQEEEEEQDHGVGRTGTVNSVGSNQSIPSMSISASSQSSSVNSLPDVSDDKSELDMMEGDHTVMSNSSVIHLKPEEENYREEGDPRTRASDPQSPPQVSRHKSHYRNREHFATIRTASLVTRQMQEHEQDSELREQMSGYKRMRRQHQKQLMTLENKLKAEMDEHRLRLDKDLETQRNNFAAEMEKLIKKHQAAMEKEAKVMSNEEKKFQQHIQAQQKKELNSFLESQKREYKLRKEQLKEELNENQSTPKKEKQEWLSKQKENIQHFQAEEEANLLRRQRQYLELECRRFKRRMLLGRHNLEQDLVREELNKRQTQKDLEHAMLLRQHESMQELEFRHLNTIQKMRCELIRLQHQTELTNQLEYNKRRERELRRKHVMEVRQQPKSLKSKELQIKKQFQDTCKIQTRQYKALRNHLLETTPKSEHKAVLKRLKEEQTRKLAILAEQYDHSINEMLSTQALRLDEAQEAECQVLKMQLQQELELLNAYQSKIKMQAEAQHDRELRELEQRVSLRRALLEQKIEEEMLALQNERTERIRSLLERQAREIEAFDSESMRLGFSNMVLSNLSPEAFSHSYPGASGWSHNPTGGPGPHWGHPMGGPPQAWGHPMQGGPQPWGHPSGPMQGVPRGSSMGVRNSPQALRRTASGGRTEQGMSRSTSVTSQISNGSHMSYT

[7] = molecular target: Serine/threonine-protein kinase pim-1 (Homo sapiens, UniProt P11309)
Note: in the data inactive means no Kd found up to 30 µM.

Serine/threonine-protein kinase pim-1, sequence (P11309 whole entry): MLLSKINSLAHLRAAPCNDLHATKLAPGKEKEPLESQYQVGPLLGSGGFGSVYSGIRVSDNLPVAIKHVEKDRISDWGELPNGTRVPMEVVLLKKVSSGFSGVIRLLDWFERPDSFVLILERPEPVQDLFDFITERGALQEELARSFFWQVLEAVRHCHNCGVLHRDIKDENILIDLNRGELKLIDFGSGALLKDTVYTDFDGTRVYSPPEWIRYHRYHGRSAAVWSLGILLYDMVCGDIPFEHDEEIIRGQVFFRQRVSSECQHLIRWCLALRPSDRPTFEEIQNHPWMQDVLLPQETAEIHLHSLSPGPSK
Serine/threonine-protein kinase/endoribonuclease IRE1, sequence (O75460 whole entry): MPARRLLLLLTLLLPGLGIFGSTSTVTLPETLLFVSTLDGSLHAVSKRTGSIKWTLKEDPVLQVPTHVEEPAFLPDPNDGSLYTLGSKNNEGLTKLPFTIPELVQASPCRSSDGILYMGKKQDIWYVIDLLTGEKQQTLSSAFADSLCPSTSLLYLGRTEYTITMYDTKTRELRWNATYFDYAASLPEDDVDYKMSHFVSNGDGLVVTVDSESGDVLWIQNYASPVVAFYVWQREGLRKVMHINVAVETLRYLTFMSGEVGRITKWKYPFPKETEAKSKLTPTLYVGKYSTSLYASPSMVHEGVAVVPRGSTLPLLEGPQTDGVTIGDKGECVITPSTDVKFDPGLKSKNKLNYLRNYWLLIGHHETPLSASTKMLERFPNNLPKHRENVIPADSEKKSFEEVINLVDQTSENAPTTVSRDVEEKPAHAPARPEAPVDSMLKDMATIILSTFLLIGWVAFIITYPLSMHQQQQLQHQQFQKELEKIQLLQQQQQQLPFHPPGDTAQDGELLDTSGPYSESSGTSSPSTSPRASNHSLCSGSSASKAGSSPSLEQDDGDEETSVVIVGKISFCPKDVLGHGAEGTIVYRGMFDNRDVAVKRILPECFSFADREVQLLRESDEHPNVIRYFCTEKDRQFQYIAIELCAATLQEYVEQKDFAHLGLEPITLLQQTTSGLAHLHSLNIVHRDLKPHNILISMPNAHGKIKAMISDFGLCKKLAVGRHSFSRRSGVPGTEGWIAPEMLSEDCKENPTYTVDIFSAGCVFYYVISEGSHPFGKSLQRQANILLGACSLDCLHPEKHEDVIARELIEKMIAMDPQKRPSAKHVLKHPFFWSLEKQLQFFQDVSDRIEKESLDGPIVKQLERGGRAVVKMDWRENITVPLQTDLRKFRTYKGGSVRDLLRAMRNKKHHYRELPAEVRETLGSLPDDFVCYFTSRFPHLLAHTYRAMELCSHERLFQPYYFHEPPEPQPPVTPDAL
Serine/threonine-protein kinase/endoribonuclease IRE2, sequence (Q76MJ5 whole entry): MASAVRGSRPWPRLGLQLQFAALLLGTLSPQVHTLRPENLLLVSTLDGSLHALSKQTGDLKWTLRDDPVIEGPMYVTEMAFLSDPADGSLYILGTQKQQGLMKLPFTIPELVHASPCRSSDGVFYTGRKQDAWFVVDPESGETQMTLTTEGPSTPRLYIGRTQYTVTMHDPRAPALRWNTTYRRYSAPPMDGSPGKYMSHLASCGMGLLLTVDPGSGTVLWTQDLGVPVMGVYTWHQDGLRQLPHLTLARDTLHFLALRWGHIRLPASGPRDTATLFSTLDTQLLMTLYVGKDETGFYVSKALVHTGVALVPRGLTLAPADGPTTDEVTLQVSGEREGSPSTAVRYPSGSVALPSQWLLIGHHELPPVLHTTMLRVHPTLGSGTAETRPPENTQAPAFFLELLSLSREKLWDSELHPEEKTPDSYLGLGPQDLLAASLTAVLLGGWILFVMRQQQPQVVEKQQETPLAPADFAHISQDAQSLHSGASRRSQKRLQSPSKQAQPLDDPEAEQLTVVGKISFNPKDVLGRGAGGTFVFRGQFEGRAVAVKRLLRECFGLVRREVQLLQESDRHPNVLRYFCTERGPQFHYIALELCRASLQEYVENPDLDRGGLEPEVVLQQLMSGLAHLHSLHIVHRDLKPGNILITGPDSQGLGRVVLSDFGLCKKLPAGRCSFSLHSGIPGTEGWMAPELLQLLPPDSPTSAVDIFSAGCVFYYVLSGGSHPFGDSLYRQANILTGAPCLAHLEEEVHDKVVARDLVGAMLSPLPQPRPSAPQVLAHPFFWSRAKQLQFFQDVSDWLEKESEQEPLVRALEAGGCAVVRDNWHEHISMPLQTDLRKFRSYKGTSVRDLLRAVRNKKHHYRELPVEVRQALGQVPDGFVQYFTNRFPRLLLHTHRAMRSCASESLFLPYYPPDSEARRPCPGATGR
Cyclin-dependent kinase 7, sequence (P50613 whole entry): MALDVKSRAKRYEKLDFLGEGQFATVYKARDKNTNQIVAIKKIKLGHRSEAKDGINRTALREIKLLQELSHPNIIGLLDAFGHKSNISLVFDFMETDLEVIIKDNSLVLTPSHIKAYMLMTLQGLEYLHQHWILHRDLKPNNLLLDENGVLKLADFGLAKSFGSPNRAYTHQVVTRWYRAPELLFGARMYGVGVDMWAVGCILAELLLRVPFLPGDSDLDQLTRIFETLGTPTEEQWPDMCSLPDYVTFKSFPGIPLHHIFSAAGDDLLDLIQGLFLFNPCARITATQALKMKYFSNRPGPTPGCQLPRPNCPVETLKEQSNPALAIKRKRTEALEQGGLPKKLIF

| SMILES | Kd [1] | Kd [3] | Kd [4] | Kd [5] | Kd [6] | Kd [2] | Kd (Aurora kinase A) | Kd [7] |
| --- | --- | --- | --- | --- | --- | --- | --- | --- |
| C[C@]1(O)C[C@@H](c2nc(-c3ccc4ccc(-c5ccccc5)nc4c3)c3c(N)nccn32)C1 [LINSITINIB] | > 30 µM (inactive) | > 30 µM (inactive) | > 30 µM (inactive) | > 30 µM (inactive) |  | > 30 µM (inactive) |  |  |
| CN(c1ncccc1CNc1nc(Nc2ccc3c(c2)CC(=O)N3)ncc1C(F)(F)F)S(C)(=O)=O [PF-00562271] |  | > 30 µM (inactive) | > 30 µM (inactive) | 2.64 µM (active) |  | > 30 µM (inactive) |  |  |
| CN1CCN(c2nc(C3=C(c4c[nH]c5ccccc45)C(=O)NC3=O)c3ccccc3n2)CC1 [SOTRASTAURIN] | > 30 µM (inactive) | > 30 µM (inactive) | > 30 µM (inactive) | > 30 µM (inactive) |  | > 30 µM (inactive) | > 30 µM (inactive) | 8.84 µM |
| CC1(COc2ccc3c(c2)ncn3-c2ccc3cccc(N4CCC(N)CC4)c3n2)COC1 [CRENOLANIB] |  | > 30 µM (inactive) | > 30 µM (inactive) | > 30 µM (inactive) | 1.24 µM | > 30 µM (inactive) | > 30 µM (inactive) | > 30 µM (inactive) |
| O=S(=O)(c1cccc2cnccc12)N1CCCNCC1 [FASUDIL] |  | > 30 µM (inactive) | > 30 µM (inactive) | > 30 µM (inactive) |  | > 30 µM (inactive) | > 30 µM (inactive) |  |
| CNC(=O)c1ccc(Nc2ncc(C(F)(F)F)c(NCc3nccnc3N(C)S(C)(=O)=O)n2)cc1 [DEFACTINIB] |  | > 30 µM (inactive) | > 30 µM (inactive) | 2.26 µM (active) | 3.23 µM (active) | > 30 µM (inactive) | 0.622 µM (active) | > 30 µM (inactive) |
| C=CCn1c(=O)c2cnc(Nc3ccc(N4CCN(C)CC4)cc3)nc2n1-c1cccc(C(C)(C)O)n1 [ADAVOSERTIB] |  | > 30 µM (inactive) |  | > 30 µM (inactive) |  | > 30 µM (inactive) | > 30 µM (inactive) |  |
| CN(C)C/C=C/C(=O)Nc1cc2c(Nc3ccc(F)c(Cl)c3)ncnc2cc1O[C@H]1CCOC1 [AFATINIB] |  | > 30 µM (inactive) |  | > 30 µM (inactive) |  |  |  |  |
| Cn1cc(-c2[nH]c3cc(NC(=O)[C@H](N)C4CCCCC4)cc4c3c2C=NNC4=O)cn1 | > 30 µM (inactive) | > 30 µM (inactive) | > 30 µM (inactive) | > 30 µM (inactive) | > 30 µM (inactive) | > 30 µM (inactive) |  | > 30 µM (inactive) |
| CCN1CCN(Cc2ccc(Nc3ncc(F)c(-c4cc(F)c5nc(C)n(C(C)C)c5c4)n3)nc2)CC1 [ABEMACICLIB] |  | > 30 µM (inactive) | > 30 µM (inactive) | > 30 µM (inactive) |  | > 30 µM (inactive) | > 30 µM (inactive) |  |

The next lines start with results.

| Kd [1] | Kd [3] | Kd [4] | Kd [5] | Kd [6] | SMILES | Kd [2] | Kd (Aurora kinase A) | Kd [7] |
| --- | --- | --- | --- | --- | --- | --- | --- | --- |
| 7.12 µM (active) | > 30 µM (inactive) | > 30 µM (inactive) | > 30 µM (inactive) | 2.08 µM (active) | O=C(O)c1ccc2c(c1)nc(Nc1cccc(Cl)c1)c1ccncc12 [SILMITASERTIB] | > 30 µM (inactive) | > 30 µM (inactive) |  |
|  | > 30 µM (inactive) | > 30 µM (inactive) | > 30 µM (inactive) |  | Cn1c(=O)n(-c2ccc(C(C)(C)C#N)cc2)c2c3cc(-c4cnc5ccccc5c4)ccc3ncc21 [DACTOLISIB] | > 30 µM (inactive) |  |  |
| > 30 µM (inactive) | > 30 µM (inactive) | > 30 µM (inactive) |  | > 30 µM (inactive) | CCOc1ccn(-c2ccc(F)cc2)c(=O)c1C(=O)Nc1ccc(Oc2ccnc(N)c2Cl)c(F)c1 [BMS-777607] | > 30 µM (inactive) | > 30 µM (inactive) | > 30 µM (inactive) |
|  | > 30 µM (inactive) |  | > 30 µM (inactive) |  | Cn1cnc2c(F)c(Nc3ccc(Br)cc3Cl)c(C(=O)NOCCO)cc21 [SELUMETINIB] |  |  |  |
|  | > 30 µM (inactive) |  | > 30 µM (inactive) |  | COc1cc2c(N3CCN(C(=O)Nc4ccc(OC(C)C)cc4)CC3)ncnc2cc1OCCCN1CCCCC1 [TANDUTINIB] |  |  |  |
|  | > 30 µM (inactive) |  |  |  | COc1cc2c(Oc3ccc4[nH]c(C)cc4c3F)ncnc2cc1OCCCN1CCCC1 [CEDIRANIB] |  |  |  |
| > 30 µM (inactive) | > 30 µM (inactive) | > 30 µM (inactive) |  | > 30 µM (inactive) | CC(C)(O)CC(=O)NCCn1ccc2ncnc(Nc3ccc(Oc4cccc(C(F)(F)F)c4)c(Cl)c3)c21 [TAK-285] | > 30 µM (inactive) | > 30 µM (inactive) | > 30 µM (inactive) |
|  | > 30 µM (inactive) |  | > 30 µM (inactive) |  | CC1(C)CNc2cc(NC(=O)c3cccnc3NCc3ccncc3)ccc21 [MOTESANIB] |  |  |  |
|  |  |  | > 30 µM (inactive) |  | C[C@@]1(C(=O)Nc2ccc(F)nc2)CCCN1c1nc(Nc2cc(C3CC3)n[nH]2)c2cccn2n1 [BMS-754807] |  |  |  |
| > 30 µM (inactive) | > 30 µM (inactive) | > 30 µM (inactive) | > 30 µM (inactive) | > 30 µM (inactive) | COc1cc2nccc(Oc3ccc(NC(=O)C4(C(=O)Nc5ccc(F)cc5)CC4)cc3)c2cc1OC [CABOZANTINIB] | > 30 µM (inactive) |  | > 30 µM (inactive) |
|  | > 30 µM (inactive) | > 30 µM (inactive) | > 30 µM (inactive) |  | CCN(CCCOc1ccc2c(Nc3cc(CC(=O)Nc4cccc(F)c4)n[nH]3)ncnc2c1)CCOP(=O)(O)O [BARASERTIB] | > 30 µM (inactive) |  |  |
| > 30 µM (inactive) | > 30 µM (inactive) | > 30 µM (inactive) | > 30 µM (inactive) | > 30 µM (inactive) | Cc1cc(Nc2nc(N[C@@H](C)c3ncc(F)cn3)ncc2Cl)n[nH]1 [AZD-1480] | > 30 µM (inactive) |  | > 30 µM (inactive) |
